In US6858624B2, “Aryl fused azapolycyclic compounds” (Pfizer, Inc., priority 2001, dated 2005):
Each block holds one compound with its values, some of them ahead of it.

Key:
[1] = in vivo metabolism study, preclinical species
Excerpt: (§1) The compound 5,8,14-triazatetracyclo[10.3.1.0^2,110.0^4,9]-hexadeca-2(11),3,5,7,9-pentaene has also been studied in vivo (rat, monkey, mouse, and human). Metabolite structures are described in Scheme I below.
(§2) The N-carbamoyl glucuronide represents an unusual, albeit not unprecedented metabolite that arises via association of carbon dioxide with the secondary amine followed by glucuronidation. […] The only excreted metabolites in human were the hydroxyquinoxaline metabolite (2.9% of dose): [drawing 17] and N-carbamoyl glucuronide (3.6% of dose).

[2] = in vivo metabolism study, human (circulating and excreted metabolites)
Excerpt: as §1, §2

[3] = biotransformation in liver microsomes; format: in vitro ADME; conditions: bicarbonate buffer, CO2 atmosphere, UDPGA
Excerpt: A number of studies have been conducted on precursor compounds to those of formula I of the present invention. In particular, studies have been carried out on 5,8,14-triazatetracyclo[10.3.1.0^2,110.0^4,9]-hexadeca-2(11),3,5,7,9-pentaene: [drawing 12] Means of the synthesis of this compound may be found International Patent Publication No. WO 99/35131 and WO 01/62736.

Structure (SMILES): O=C(O)C1OC(OC(=O)N2CC3CC(C2)c2cc4nccnc4cc23)C(O)C(O)C1O (stereo not drawn) [N-carbamoyl glucuronide]
metabolite present in rat and monkey [1]: present in rat and monkey
metabolites in human circulation [2]: Metabolites in human circulation included
excreted metabolite in human ([2]; after 5,8,14-triazatetracyclo[10.3.1.0^2,110.0^4,9]-hexadeca-2(11),3,5,7,9-pentaene): 3.6 % of dose

biotransformation in liver microsomes [3]: underwent N-carbamoyl glucuronidation
Structure (SMILES): c1cnc2cc3c(cc2n1)C1CNCC3C1 [5,8,14-triazatetracyclo[10.3.1.0^2,110.0^4,9]-hexadeca-2(11),3,5,7,9-pentaene]

Structure (SMILES): Oc1cnc2cc3c(cc2n1)C1CNCC3C1 (stereo not drawn) [hydroxyquinoxaline metabolite]
excreted metabolite in human ([2]; in vivo): 2.9 % of dose

Structure (SMILES): O=CN1CC2CC(C1)c1cc3nccnc3cc12 [N-formyl]
metabolites in human circulation [2]: Metabolites in human circulation included
